Laboratory results published in patent publication US9200333B2, “Methods for identifying modulators of murine double minute 2” (Indiana University Research and Technology Corporation, priority 2012, dated 2015).

How the values were obtained:
Assay type in all cases: cell-based, human
[1] = system: neddylating activity of Mdm2 (neddylated p53) in H1299 cells; assay: Western blot of neddylated p53 in H1299 cells transfected with p53, Mdm2 and CA-Src; details: vs DMSO, FIG. 29
Method: (§1) Mammalian cells (H1299 and MCF7) were cultured at 37° C. in a humidified incubator with 5% CO2 in DMEM high glucose plus 10% FBS. Transfection in H1299 was performed using a calcium phosphate method and in MCF7 using Lipofectamine Plus reagent (Invitrogen). Equal amounts of DNA were transfected into cells and incubated for the indicated times prior to analysis. PPI (Calbiochem) and MLN4924 (LifeSensors) were used at concentrations provided. Site-directed mutagenesis was performed by PCR, and constructs were sequenced in their entirety.
H1299 cells were transfected with His-Ubiquitin or His-Nedd8 and other plasmids as indicated using calcium phosphate method. 48 hours after transfection, cells were lysed in 1 ml of 6M guanidinium-HCl, 0.1M Na2HPO4/NaH2PO4, 0.01M Tris-HCl pH 8.0 plus 5 mM Imidazole and 10 mM β-mercaptoethanol. After sonication, the lysates were mixed with 30 μl of Ni^2+-NTA-agarose beads (Qiagen) prewashed with lysis buffer and incubated for 2 hours at room temperature. The beads were successively washed and eluted.
Based on transient transfection data that supported its role as a neddylating enzyme, the affect of pharmacological inhibition of neddylating activity of Mdm2 using MLN4924 was determined.

[2] = system: p53 activity (PG13-Luc) in H1299 cells; assay: PG13-Luc luciferase assay in H1299 cells transfected with p53, Mdm2 and CA-Src; details: H1299 cells transfected with PG-13-luc, FIG. 32
Method: (§2) For the luciferase assays, H1299 and MCF7 cells were transfected with PG13-Luc, Mdm2-P2-Luc, Maspin-Luc or Mutant Maspin-Luc (MT1) along with Myc-LacZ for determination of […] activity, using the calcium phosphate method. Reporter activity was normalized to […] activity. Data generated were done in triplicate and standard deviation was calculated from the mean.
H1299 cells were transfected with the PG-13-luc, p53, Mdm2 and CA-Src. Reduction in p53 activity by Mdm2 was further increased in the presence of c-Src.

[3] = system: endogenous neddylated p53 in MCF7 cells; assay: Immunoprecipitation of p53 from MCF7 cells and anti-Nedd8 immunoblot; details: vs DMSO, FIG. 30
Method: (§3) Whole cell lysates (Lysates) were prepared in Nonidet P-40 lysis buffer (25 mM Tris, pH 8.0, 150 mM NaCl, 0.5 mM EDTA, 0.5 mM EGTA, 1% Nonidet P-40, 1 mM sodium orthovanadate, 1 mM DTT) and supplemented with protease inhibitor mixture set III (Calbiochem) at 1:100 and incubated on ice for 30 min. Debris was collected by centrifugation, and equal amounts of supernatant protein were determined by BioRad assay. Protein was fractionated by SDS-PAGE and transferred to PVDF membrane (Amersham Biosciences). Antibodies used for Western blotting were: Mdm2 (SMP14, 2Al0, and 4Bl1), c-Src (B-12; Santa Cruz), p53 (DO-1), tubulin (TU-02), GAPDH (8C2), and β-actin (C4; Santa Cruz Biotechnology); phosphotyrosine (4010; Upstate); phospho-c-Src Tyr^416 (Cell Signaling); Myc (9E10) and HA (12CA5) Immunoprecipitation from lysates was performed using 500 ng of either SMP14 for Mdm2, HA (12CA5), p53 (D01) or c-Src (B-12) antibody overnight at 4° C. in 700 μl of PBS. Protein A/G Plus Agarose (Santa Cruz Biotechnology) was added to the mixture and incubated an additional 2 hrs at 4° C., precipitates were washed three times in PBS, and samples were resuspended in SDS loading buffer and boiled for 5 min.
To determine the role of c-Src on endogenous neddylation of p53, the c-Src inhibitor PP1 was used to treat MCF7 cells. MCF7 cells were treated with PP1, and p53 was immunoprecipitated from cell extracts. […]

[4] = system: maspin protein in MCF7 cells; assay: Western blot of Maspin in MCF7 cells; details: vs DMSO, FIG. 36
Method: as §3
To ensure that the decrease seen on the maspin promoter was due to c-Src phosphorylation of Mdm2, another luciferase assay was done using the Y281-302F Mdm2 and CA-Src. […]

[5] = system: Mdm2 protein levels in MCF7 cells; assay: Western blot of endogenous Mdm2 protein levels in MCF7 cells
Method: as §1, §3
To examine how c-Src regulates endogenous Mdm2 protein levels, c-Src was activated through epidermal growth factor (EGF) stimulation of MCF7 cells. MCF7 cells were serum-starved for 48 hrs and then treated with 200 ng/mL of EGF for a time course of 2 hrs. […]

p53 levels in MCF7 cells = assay: Western blot of endogenous p53 levels in MCF7 cells
Method: as §3
To examine endogenous p53 levels, MCF 7 cells were transfected with increasing amounts of CA-Src. […]

[6] = system: p53 activity on the maspin promoter in MCF7 cells; assay: Maspin-Luc luciferase assay in MCF7 cells; details: 16 hrs, FIG. 35
Method: as §2
To ensure that the decrease seen on the maspin promoter was due to c-Src phosphorylation of Mdm2, another luciferase assay was done using the Y281-302F Mdm2 and CA-Src. […] For further insight on how endogenous neddylation of p53 would affect maspin level, MCF7 cells were transfected with the maspin-Luc construct or a mutant maspin-Luc (MT1) that is unresponsive to p53, to ensure luciferase activity was dependent on p53. c-Src was then inhibited for 16 hrs using PP1 and a luciferase assay was performed. […] These findings provide insight into the regulation of c-Src-induced neddylation of p53. This neddylation event is responsible for the further reduction in p53 activity on both the PG13-Luc and on its ability to activate the tumor suppressor maspin (FIG. 37).

mdm2 P2 promoter = assay: mdm2-P2-Luc luciferase reporter assay in MCF7 cells; details: vs DMSO, FIG. 16
Method: as §2
To determine whether c-Src altered mdm2 gene expression, a luciferase reporter assay was conducted in which the mdm2 P2 promoter was attached to luciferase.

[7] = system: endogenous Mdm2 tyrosine phosphorylation in MCF7 cells; assay: Immunoprecipitation of Mdm2 from MCF7 extracts and immunoblot for phosphorylated tyrosine; details: MCF7 cells pretreated 16 hrs; FIG. 8
Method: as §1
Whole cell lysates (Lysates) were prepared in Nonidet P-40 lysis buffer (25 mM Tris, pH 8.0, 150 mM NaCl, 0.5 mM EDTA, 0.5 mM EGTA, 1% Nonidet P-40, 1 mM sodium orthovanadate, 1 mM DTT) and supplemented with protease inhibitor mixture set III (Calbiochem) at 1:100 and incubated on ice for 30 min. Debris was collected by centrifugation, and equal amounts of supernatant protein were determined by BioRad assay. Protein was fractionated by SDS-PAGE and transferred to PVDF membrane (Amersham Biosciences). […]
First, H1299 cells were transfected with HA-tagged Mdm2 (HA-Mdm2) with either constitutively active c-Src (CA-Src) or a kinase dead Src (KD-Src). […] Along with overexpression, whether c-Src could phosphorylate endogenous Mdm2 was determined. […]

Compound: NS(=O)(=O)OC[C@@H]1C[C@@H](n2ccc3c(N[C@H]4CCc5ccccc54)ncnc32)C[C@@H]1O [MLN4924]
- neddylated p53 [1]: loss of neddylated p53
- p53 activity (PG13-Luc) [2]: restored p53 activity to levels observed with Mdm2 alone

Compound: Cc1ccc(-c2nn(C(C)(C)C)c3ncnc(N)c23)cc1 [PP1]
- endogenous neddylated p53 [3]: decrease in endogenous neddylated p53
- maspin protein level [4]: maspin protein was increased
- Mdm2 levels ([5]; MCF7 cells, increasing concentrations (1, 5, 10, 15, 20 μM), FIG. 14): dose-dependent decrease in Mdm2 levels
- Mdm2 protein level after EGF ([5]; serum starved MCF7 cells pre-treated 1 hr before addition of EGF, FIG. 13): no apparent increase in Mdm2
- p53 levels (p53 levels in MCF7 cells; MCF7 cells, increasing concentrations (1, 5, 10, 15, 20 μM), FIG. 24): dose dependent decrease in p53 levels
- p53 activity on maspin-Luc construct [6]: increase of p53 activity on the maspin-Luc construct
- mdm2 promoter luciferase activity (mdm2 P2 promoter): No difference
- endogenous Mdm2 tyrosine phosphorylation [7]: loss of endogenous Mdm2 tyrosine phosphorylation

Compound: EGF: epidermal growth factor used to activate c-Src in MCF7 cells
- Mdm2 protein levels on EGF stimulation ([5]; MCF7 cells serum-starved 48 hrs, 200 ng/mL, time course of 2 hrs, FIG. 12): increase of Mdm2 protein levels
- p53 levels on EGF stimulation (p53 levels in MCF7 cells; MCF7 cells serum starved 48 hours, 1-hour time course, FIG. 23): increase in p53
